Results: US6180596A, “Methods of inhibiting phospholipase A2 and phospholipase A2 stimulator activities” (Wisconsin Alumni Research Foundation, priority 1998, dated 2001)
“Also recorded” adds a separate entry of the source.

Test system: elastase
Assay: Degradation of rabbit lung Annexin I to 33 kDa(BP) by elastase, with and without PMSF
Format: biochemical
Conditions: PMSF present in the reaction solution; concentration not given; substrate rabbit lung Annexin I

**Q.** With `O=S(=O)(F)Cc1ccccc1` [PMSF, phenylmethyl sulfonyl fluoride] as the compound, how does the “inhibition of the proteolytic hydrolysis of Annexin I catalyzed by elastase” value read?
**A.** totally inhibited; also recorded: prevented Annexin I degradation
